{"source": "patent US4338122A", "about": "“Biocidal 2-aryl-1,3-cyclopentanedione compounds and alkali metal and ammonium salts thereof” (Union Carbide Corporation, priority 1980, dated 1982)", "key": {"[1]": {"tested_on": "Red root pigweed (Amaranthus)", "experiment": "Preliminary herbicide seed germination test (pre-emergent), Amaranthus", "type": "in vivo, Amaranthus retroflexus", "parameters": "key: 5: no seedling emerged; 4: few seedlings emerged and/or very severe stunting; 3: moderate reduction in stand and/or moderate stunting; 2: very slight reduction in stand and/or slight stunting; 1: no injury; seedlings appear no different with respect to stand or growth than untreated controls", "details": "ten to twelve days after application", "method": "(§1) Suspensions of the test compounds were prepared by dissolving one gram of compound in 50 milliliters of acetone in which had been dissolved 0.1 gram (10 percent of the weight of compound) of an alkylphenoxyethoxyethanol surfactant, as an emulsifying or dispersing agent. The resulting solution was mixed into 160 milliliters of water to give roughly 200 milliliters of a suspension containing the compound in finely divided form. The thus prepared stock suspension contained 0.5 percent by weight of compound. The test concentrations employed in the tests described herein below were obtained by diluting the stock suspension with water. The test procedures were as follows:\n(§2) The following seeds were used in this test:\nRed root pigweed--Amaranthus retroflexus\n(§3) Two soil-seed mixtures were prepared as follows:\n(§4) Each of the above mixtures was rolled separately in 5 gallon containers for approximately one-half hour on ball mill to insure uniform mixing of seeds and soil. For each compound four 3-inch pots were filled with soil to within 11/2 inches of top of pots. To two of these pots were added 70 cc. of Mixture I. To the remaining 2 pots were added 70 cc. of Mixture II. The seed-soil mixture was tamped firmly, and the pots were removed to the green-house and watered lightly. About 2 hours after planting, 25 milliliters of the test formulation were added to one pot containing Mixture I and one pot containing Mixture II. An equal volume of a water solution containing acetone and an emulsifier in the same concentration as the herbicidal mixture but without the candidate herbicide was also added to each of the soil-seed mixtures. These pots are used as check or control units. The test compounds were formulated by diluting the stock suspension with water to obtain the desired concentration of the compound in parts per million of the final formulation. Each compound was tested at the same concentration. […] Ratings were made according to the following designations:\n(§5) Tests were conducted in accordance with the procedures given at pages 32 to 37 supra. The results are expressed in the same manner as used in Table I, except with respect to miticidal activity. For mite adult and mite egg comparison purposes, results are given in parts per million (ppm) required for a 50 percent kill of mites or eggs, respectively."}, "[2]": {"tested_on": "two-spotted mite (Tetranychus urticae (Koch)), adults and nymphal stages", "experiment": "Mite Foliage Spray Test (adult miticidal)", "type": "in vivo", "parameters": "key to Miticidal, Adult (control rating): A: Excellent Control; B: Partial Control; No Control", "details": "for Miticidal, Adult (control rating): Table I, mortality count four days after spraying; for LC50: Tetranychus urticae, foliar, Table II, read-out: Miticidal LD50, Adult (ppm required for a 50 percent kill of mites)", "method": "as §1\nAdults and nymphal stages of the two-spotted mite (Tetranychus urticae (Koch)), reared on Tendergreen bean plants at 80°±5° F. and 50±5 percent relative humidity, were the test organisms. Infested leaves from a stock culture were placed on the primary leaves of two bean plants six to eight inches in height, growing in a two-and-a-half inch clay pot. 150-200 Mites, a sufficient number for testing, transferred from the excised leaves to the fresh plants in a period of twenty-four hours. Following the twenty-four hour transfer period, the excised leaves were removed from the infested plants. The test compounds were formulated by diluting the stock suspension with water to provide suspensions containing the desired amount of test compound per million parts of final formulation. The potted plants (one pot per compound) were placed on a revolving turntable and sprayed with 100-110 milliliters of test compound formulation by use of a DeVilbis spray gun set at 40 psi. air pressure. This application, which lasted 30 seconds, was sufficient to wet the plants to run-off. As a control, 100-110 milliliters of a water solution containing acetone and emulsifier in the same concentrations as the test compound formulation, but containing no test compound, were also sprayed on infested plants. The sprayed plants were held at 80°±5° F. and 50±5 percent relative humidity for four days, after which, a mortality count of motile forms was made on the leaves of the test plants. Any individual which was capable of locomotion upon prodding was considered living.\nIn these tests the pesticidal activity of the compounds against mites and mite eggs were rated as follows:\nas §5"}, "[3]": {"tested_on": "Mustard", "experiment": "Preliminary herbicide seed germination test (pre-emergent), mustard", "type": "in vivo, Brassica pincea var. foliosa (Florida broadleaf)", "parameters": "key: 5: no seedling emerged; 4: few seedlings emerged and/or very severe stunting; 3: moderate reduction in stand and/or moderate stunting; 2: very slight reduction in stand and/or slight stunting; 1: no injury; seedlings appear no different with respect to stand or growth than untreated controls", "details": "ten to twelve days after application", "method": "as §1, §2\nMustard--Brassica pincea var. foliosa (Florida broadleaf)\nas §3\nas §4, with “designations: […]” for “designations:”"}}}
{"compound": "Cc1ccc(C2C(=O)C3CCCCC3C2=O)c(C)c1", "note": "(stereo not drawn) [CH3 CH3 H (CH2)4, 2-(2',4'-dimethylphenyl)-4,5,6,7,8,9-hexahydro-1,3-indandione]", "values": [{"measurement": "Pre-emergent Herbicidal, Amaranthus (injury rating)", "setting": "[1]; Table I", "value": 5}, {"measurement": "Pre-emergent Herbicidal, Amaranthus (injury rating)", "setting": "[1]; Table II", "value": 5}, {"measurement": "Miticidal, Adult (control rating)", "setting": "[2]", "value": "A"}, {"measurement": "LC50", "setting": "[2]", "value": 7, "unit": "µg/mL"}, {"measurement": "Pre-emergent Herbicidal, Mustard (injury rating)", "setting": "[3]; Table I", "value": 5}, {"measurement": "Pre-emergent Herbicidal, Mustard (injury rating)", "setting": "[3]; Table II", "value": 5}]}
{"compound": "Cc1ccc(C2C(=O)CCC2=O)c(C)c1", "note": "[CH3 CH3 H H H, 2-(2',4'-dimethylphenyl)-1,3-cyclopentanedione]", "values": [{"measurement": "Pre-emergent Herbicidal, Amaranthus (injury rating)", "setting": "[1]; Table I", "value": 5}, {"measurement": "Pre-emergent Herbicidal, Amaranthus (injury rating)", "setting": "[1]; Table II", "value": 5}, {"measurement": "Miticidal, Adult (control rating)", "setting": "[2]", "value": "A"}, {"measurement": "LC50", "setting": "[2]", "value": 15, "unit": "µg/mL"}, {"measurement": "Pre-emergent Herbicidal, Mustard (injury rating)", "setting": "[3]; Table I", "value": 3}, {"measurement": "Pre-emergent Herbicidal, Mustard (injury rating)", "setting": "[3]; Table II", "value": 3}]}
{"compound": "Cc1ccc(C)c(C2C(=O)C3CCCCC3C2=O)c1", "note": "(stereo not drawn) [CH3 H CH3 (CH2)4, 2-(2',5'-dimethylphenyl)-4,5,6,7,8,9-hexahydro-1,3-indandione]", "values": [{"measurement": "Pre-emergent Herbicidal, Amaranthus (injury rating)", "setting": "[1]; Table I", "value": 1}, {"measurement": "Pre-emergent Herbicidal, Amaranthus (injury rating)", "setting": "[1]; Table II", "value": 1}, {"measurement": "Miticidal, Adult (control rating)", "setting": "[2]", "value": "A"}, {"measurement": "LC50", "setting": "[2]", "value": 35, "unit": "µg/mL"}, {"measurement": "Pre-emergent Herbicidal, Mustard (injury rating)", "setting": "[3]; Table I", "value": 1}, {"measurement": "Pre-emergent Herbicidal, Mustard (injury rating)", "setting": "[3]; Table II", "value": 1}]}
{"compound": "Cc1ccc(C)c(C2C(=O)CC(C)C2=O)c1", "note": "(stereo not drawn) [CH3 H CH3 CH3 H, 2-(2',5'-Dimethylphenyl)-4-methyl-1,3-cyclopentanedione]", "values": [{"measurement": "Pre-emergent Herbicidal, Amaranthus (injury rating)", "setting": "[1]; Table I", "value": 3}, {"measurement": "Miticidal, Adult (control rating)", "setting": "[2]", "value": "A"}, {"measurement": "Pre-emergent Herbicidal, Mustard (injury rating)", "setting": "[3]; Table I", "value": 2}]}
{"compound": "Cc1ccc(C)c(C2C(=O)CCC2=O)c1", "note": "[CH3 H CH3 H H]", "values": [{"measurement": "Pre-emergent Herbicidal, Amaranthus (injury rating)", "setting": "[1]; Table I", "value": 3}, {"measurement": "Miticidal, Adult (control rating)", "setting": "[2]", "value": "A"}, {"measurement": "Pre-emergent Herbicidal, Mustard (injury rating)", "setting": "[3]; Table I", "value": 2}]}
{"compound": "Cc1ccccc1C1C(=O)C2CCCCC2C1=O", "note": "(stereo not drawn) [CH3 H H (CH2)4, 2-(2'-Methylphenyl)-4,5,6,7,8,9-hexahydro-1,3 indandione]", "values": [{"measurement": "Pre-emergent Herbicidal, Amaranthus (injury rating)", "setting": "[1]; Table I", "value": 3}, {"measurement": "Pre-emergent Herbicidal, Amaranthus (injury rating)", "setting": "[1]; Table II", "value": 3}, {"measurement": "Miticidal, Adult (control rating)", "setting": "[2]", "value": "A"}, {"measurement": "LC50", "setting": "[2]", "value": 12, "unit": "µg/mL"}, {"measurement": "Pre-emergent Herbicidal, Mustard (injury rating)", "setting": "[3]; Table I", "value": 2}, {"measurement": "Pre-emergent Herbicidal, Mustard (injury rating)", "setting": "[3]; Table II", "value": 2}]}
{"compound": "Cc1ccccc1C1C(=O)CCC1=O", "note": "[CH3 H H H H, 2-(2'-methylphenyl)-1,3-cyclopentanedione]", "values": [{"measurement": "Pre-emergent Herbicidal, Amaranthus (injury rating)", "setting": "[1]; Table I", "value": 1}, {"measurement": "Pre-emergent Herbicidal, Amaranthus (injury rating)", "setting": "[1]; Table II", "value": 1}, {"measurement": "Miticidal, Adult (control rating)", "setting": "[2]", "value": "A"}, {"measurement": "LC50", "setting": "[2]", "value": 90, "unit": "µg/mL"}, {"measurement": "Pre-emergent Herbicidal, Mustard (injury rating)", "setting": "[3]; Table I", "value": 1}, {"measurement": "Pre-emergent Herbicidal, Mustard (injury rating)", "setting": "[3]; Table II", "value": 1}]}
{"compound": "O=C1CCC(=O)C1c1ccc(Cl)cc1Cl", "note": "[Cl Cl H H H, 2-(2',4'-Dichlorophenyl)-1,3-cyclopentanedione]", "values": [{"measurement": "Pre-emergent Herbicidal, Amaranthus (injury rating)", "setting": "[1]; Table I", "value": 1}, {"measurement": "Miticidal, Adult (control rating)", "setting": "[2]", "value": "A"}, {"measurement": "Pre-emergent Herbicidal, Mustard (injury rating)", "setting": "[3]; Table I", "value": 1}]}
{"compound": "O=C1CCC(=O)C1c1ccccc1Cl", "note": "[Cl H H H H]", "values": [{"measurement": "Pre-emergent Herbicidal, Amaranthus (injury rating)", "setting": "[1]; Table I", "value": 1}, {"measurement": "Miticidal, Adult (control rating)", "setting": "[2]", "value": "B"}, {"measurement": "Pre-emergent Herbicidal, Mustard (injury rating)", "setting": "[3]; Table I", "value": 3}]}
{"compound": "Cc1ccccc1C1C(=O)c2ccccc2C1=O", "note": "[Reference I Page 3, Compound 1, reference compound]", "values": [{"measurement": "Pre-emergent Herbicidal, Amaranthus (injury rating)", "setting": "[1]; Table II", "value": 2}, {"measurement": "LC50", "setting": "[2]", "value": 200, "unit": "µg/mL"}, {"measurement": "Pre-emergent Herbicidal, Mustard (injury rating)", "setting": "[3]; Table II", "value": 1}]}
{"compound": "Cc1ccc(C)c(C2C(=O)c3ccccc3C2=O)c1", "note": "[Reference II Page 146, Compound 6, reference compound]", "values": [{"measurement": "Pre-emergent Herbicidal, Amaranthus (injury rating)", "setting": "[1]; Table II", "value": 1}, {"measurement": "LC50", "setting": "[2]", "value": 500, "unit": "µg/mL"}, {"measurement": "Pre-emergent Herbicidal, Mustard (injury rating)", "setting": "[3]; Table II", "value": 1}]}
{"compound": "Cc1ccc(C2C(=O)c3ccccc3C2=O)c(C)c1", "note": "[Reference II Page 146, Compound 9, reference compound]", "values": [{"measurement": "Pre-emergent Herbicidal, Amaranthus (injury rating)", "setting": "[1]; Table II", "value": 3}, {"measurement": "LC50", "setting": "[2]", "value": 40, "unit": "µg/mL"}, {"measurement": "Pre-emergent Herbicidal, Mustard (injury rating)", "setting": "[3]; Table II", "value": 2}]}
